# Data published in patent publication US8114393B2, “Methods and compositions for phosphate binding” (Wisconsin Alumni Research Foundation, priority 2005, dated 2012).
# What was measured:
# [1] = tested on: intestinal phosphorus absorption; assay: Fecal phosphorus content, increasing dietary levels of DAB-8 hydroacetate for three weeks; format: in vivo, rats
# Excerpt: Materials and Methods. Young male Sprague-Dawley rats weighing approximately 90 g were fed a purified diet containing 0.47% calcium and 0.2% inorganic phosphorus, solidified with molten agar, for 5 days. After this acclimation period, the rats were divided into 5 groups by body weight. One group remained on the control diet while the other 4 groups were fed diets containing increasing levels of DAB-8 in the hydroacetate salt form (0.09 to 0.7%). After 1, 2 and 3 weeks on the diets, the rats were moved to metabolic caging and 24 to 48 hour fecal collections were obtained. The feces were dried then ashed in a muffle oven at 700° C. for 24 hours. The resulting ash was dissolved in 6N HCl and the phosphorus content was measured using an in-house colorimetric assay.
# Data are expressed as means±SEM. Data were subjected to analysis of variance (ANOVA), and group means compared using Tukey, Scheffe and Fisher's LSD test.
# Young rats were either control diet (“0”), or the same diet containing one of four levels of DAB-8 as the hydroacetate for three weeks. Feces were collected from the rats using metabolic housing for 24 to 48 hours at the end of the first (week 1), second (week 2) or third (week 3) weeks. Feces was dried, then ashed in a muffle oven. Resulting ash was dissolved in 6N HCl. Phosphorus content was determined using an in-house colorimetric assay. *Indicates significant difference from control diet with a p-value of […].
# [2] = tested on: Intestinal Phosphate Absorption; assay: Intestinal phosphate absorption: oral 33P dose after gavage of phosphate binder; format: in vivo, rats; conditions: 14.4 mg Renagel or 10 mg DAB-8 as acetate or citrate; 10 mM KH2PO4; 60 min
# Protocol: Animals. Male Sprague-Dawley rats (Harlan Sprague-Dawley, Madison, Wis.) weighing approximately 120 grams were used in all experiments.
# In experiments to measure ^33P absorption, the rats were fed a laboratory chow diet (Lab Diet 5012, Richmond, Ind.) containing 1% calcium and 0.7% phosphorus ad libitum for less than one week prior to the experiment.
# Intestinal Phosphate Absorption. Following an overnight fast, rats were administered 0.5 mL water or an oral phosphate binder dissolved in water via gastric gavage. A second dose of 0.5 mL containing 3 μCi ^33P (as H3PO4, specific activity 155.8 Ci/mg, New England Nuclear/Perkin Elmer, Boston, Mass.) in a 10, 50, or 100 mM KH2PO4 buffer at pH 7.4 was immediately administered via gastric gavage. Rats were killed by CO2 asphyxiation immediately or 60 minutes after the oral dose. The rats killed immediately (labeled “0 min control” in figures) were used to determine if the oral ^33P dose was properly administered and completely recovered.
# Blood was collected via heart puncture and centrifuged at 1500×g for 15 minutes at 22° C. to yield serum. A suture was tied to the cranial end of the esophagus to contain liquid inside the stomach. The entire digestive tract was then removed and allowed to dissolve for several days in concentrated HNO3 (approximately 1 mL HNO3 per gram tissue). The exact volume of the dissolved digestive tract was determined by diluting the dissolved tissues to equal volumes with water.
# The amount of radioactivity in total body serum and total volume of dissolved tissue was determined following liquid scintillation counting of 50 μL aliquots in triplicate (Tri-Carb Liquid Scintillation Analyzer, Perkin-Elmer/Packard, Boston, Mass.). Total body serum was estimated to be 40 mL serum/kg body weight. (Hawk T et al., 1999, Formulary for laboratory animals, Ames, Iowa: Iowa State University Press.)
# Statistical analysis. Data are presented as means±standard error of the means (SEM). Treatment groups were compared by a fully factorial analysis of variance (ANOVA) and means were subjected to Tukey, Scheffe, and Fisher's Least-Significant-Difference (LSD) tests (Systat 5.2.1, Systat Software, Inc., Point Richmond, Calif.). Differences were considered significant if at least two of the tests detected significance with a p-value <0.05, unless specified otherwise.
# Materials and Methods. The relevant materials and methods were the same as set forth above except that instead of using “0.5 mL of water or 39.5 mg calcium acetate, 14.4 mg RENAGEL, or up to 132.8 mg of test dendrimer,” the following was used “0.5 mL of water, 14.4 mg RENAGEL or 10 mg DAB-8 as the hydroacetate or hydrocitrate form dissolved in water.”
substance,measurement,setting,value
Polypropylenimine octaamine Dendrimer decahydroacetate [DAB-8 as acetate],"fecal phosphorus content versus control diet, first 2 weeks on the diet",[1]; all four levels of the phosphate binder (0.09 to 0.7%),significant increase
same,fecal phosphorus output,"[1]; daily consumption, 0.09 to 0.7% of diet",dose-dependent increase
same,dietary phosphorus absorption in vivo,"[1]; inferred from fecal phosphorus, 0.09 to 0.7% of diet",dose-dependent reduction
same,"fecal phosphorus content versus control diet, week 3",[1]; only the highest dietary level,retains significance
same,33P in the serum compared with vehicle pretreatment (FIG. 26),[2],significantly less
same,33P retained in the gut compared with vehicle pretreatment (FIG. 25),[2],significantly more
